Target: T1, human TAS1R2-A574T (subunit alone) (Homo sapiens, UniProt Q8TE23, A574T)
T1 construct: expressed in transfected cells; host or cells: HEK293T-Gα16gust44
T1 sequence (Q8TE23 20-839 A574T): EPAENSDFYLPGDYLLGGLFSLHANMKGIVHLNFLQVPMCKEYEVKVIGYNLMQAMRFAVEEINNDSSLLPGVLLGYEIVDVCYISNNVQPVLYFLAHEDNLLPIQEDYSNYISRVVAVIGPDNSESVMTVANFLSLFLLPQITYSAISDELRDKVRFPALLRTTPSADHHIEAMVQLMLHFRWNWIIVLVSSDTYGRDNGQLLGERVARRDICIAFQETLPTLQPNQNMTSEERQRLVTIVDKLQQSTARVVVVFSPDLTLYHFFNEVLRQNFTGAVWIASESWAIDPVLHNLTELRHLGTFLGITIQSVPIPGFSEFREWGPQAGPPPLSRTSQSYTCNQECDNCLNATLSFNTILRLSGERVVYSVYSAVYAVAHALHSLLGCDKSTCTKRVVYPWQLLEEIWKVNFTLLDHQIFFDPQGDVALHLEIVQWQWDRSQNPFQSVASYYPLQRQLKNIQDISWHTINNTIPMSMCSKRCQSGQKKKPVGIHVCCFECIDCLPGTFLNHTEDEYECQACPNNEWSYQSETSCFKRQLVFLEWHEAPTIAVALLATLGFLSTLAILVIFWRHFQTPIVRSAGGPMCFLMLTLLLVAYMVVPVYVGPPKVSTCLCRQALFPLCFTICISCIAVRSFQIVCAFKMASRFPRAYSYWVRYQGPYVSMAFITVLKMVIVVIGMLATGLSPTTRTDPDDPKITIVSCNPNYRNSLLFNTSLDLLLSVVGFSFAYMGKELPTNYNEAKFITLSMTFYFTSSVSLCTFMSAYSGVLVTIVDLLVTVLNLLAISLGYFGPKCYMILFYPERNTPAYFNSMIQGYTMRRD
Test: Calcium mobilisation assay, TAS1R2-A574T subunit alone
Type: cell-based
From the text: The coding sequences for TAS1R2 and TAS1R3 were commercially synthesised, and the human codon was optimised for expression in human cells. The coding sequences of human TAS1R2 and TAS1R3 were subcloned and inserted into the mammalian expression vectors pcDNA6/myc-HisA and pcDNA4/myc-HisA (Invitrogen; Thermo Fisher Scientific; Illkirch, France) between the EcoRI and NotI restriction sites, generating the plasmids pcDNA6-TAS1R2 and pcDNA4-TAS1R3, respectively. To increase protein expression in mammalian cells, an upstream start codon was used, which was a sequence called MAX, corresponding to the QBI SP163 element also described in pcDNA4-HisMax (Invitrogen; Thermo Fisher Scientific; Illkirch, France). To measure the expression level of the receptor by immunohistochemistry, we used the FLAG sequence ([…]) in the C-terminal position, which encodes the FLAG tag epitope. […]
The HEK293T cells were kindly provided by Jay P. Slack (Givaudan Flavors Corporation; Cincinnati, OH, USA). […] The fluorescence intensity was measured for 90 s (excitation 488 nm, emission 510 nm) in an automated fluorometric FlexStation®3 Multi-Mode microplate reader (Molecular Devices; San Jose, CA, USA). […] The Ca^2+ changes were expressed as fractional changes in fluorescent light intensity: ΔF/F = (F − F0)/F0, where F was the fluorescent light intensity at each point, and F0 was the value of emitted fluorescent light prior to stimulus application. To calculate dose–response relationships, the changes in fluorescence upon stimulus application were averaged, mock-subtracted and baseline-corrected. […] The half-maximal effective concentrations (EC50 values) and maximal signal amplitudes were calculated using SigmaPlot software (version 15.0) (Systat Software; San Jose, CA, USA).
For in vitro calcium mobilisation assay performed on hTAS1R2-SNPs, hTAS1R3-SNPs and mTAS1R3-I60T, 6 to 7 concentrations were tested for each sweet compound, plus buffer alone. All concentration–receptor combinations were measured in duplicate, and each experiment was repeated at least 4 times (8 wells/concentration). […]

EC50: 85.3 ± 12.4 µM
R1 = Variant EC50/WT EC50: 0.9
Max ΔF/F0 (maximal signal amplitude): 0.25 ± 0.01
SMILES: C=C(C)[C@@H]1CC=C(/C=N/O)CC1 [Perillartine, perillartine]

Reference: paper PMC11945486, “TAS1R2/TAS1R3 Single-Nucleotide Polymorphisms Affect Sweet Taste Receptor Activation by Sweeteners: The SWEET Project” (Nutrients, 2025)
